Source: patent publication US20260276624A1, “PROPHYLACTIC OR THERAPEUTIC AGAINST EXACERBATION OR RECURRENCE OF CANCER, AND SCREENING METHOD THEREFOR” (KEIO UNIVERSITY, priority 2022, published 2026)

What was measured:
[1] = tested on: COL17A1 KO human colorectal cancer organoids; test: YAP signaling inhibitor on COL17A1 KO organoids, proportion of LGR5-positive p27-positive cells; format: cell-based; settings: 20 μM, 2 days
Protocol: A YAP signaling inhibitor was allowed to act on COL17A1 KO organoids to study an effect on dormancy of cancer stem cells. As a YAP signaling inhibitor, MYF-01-37 (CAS No. 2416417-65-5), a low-molecular-weight TEAD inhibitor (TEADi) that disrupts YAP/TAZ-TEAD protein-protein interactions, was used (20 μM, 2 days). […] The scale bar is 100 μm. The right side of FIG. 11 is a graph showing results of measuring the proportion of LGR5-positive p27-positive cells based on the photographs on the left side of FIG. 11.

[2] = tested on: Human colorectal cancer organoids (CCO32 strain); test: Experimental Example 14: organoid xenograft, TEAD inhibitor after irinotecan; format: in vivo, NOG mice
Protocol: The upper row in FIG. 18 is a schematic view showing a schedule of this experiment. Human colorectal cancer organoids (CCO32 strain) were xenotransplanted into the subcutis of immunodeficient NOG mice. Thereafter, irinotecan was administered once a week for three times, followed by administering a TEAD inhibitor over a long period of time to inhibit YAP signaling. Thereafter, administration of the TEAD inhibitor was discontinued. As a TEAD inhibitor, MYF-01-37 (CAS No. 2416417-65-5) was used.
The lower row in FIG. 18 is a group showing change in tumor size in mice of each group over time. In the lower row in FIG. 18, “Vehicle” indicates a result of a group into which only a solvent was administered, “TEADi” indicates a result of a group into which only a TEAD inhibitor was administered, “IRI” indicates a result of a group into which only irinotecan was administered, and “IRI+TEADi” indicates a result of a group into which irinotecan and a TEAD inhibitor were administered.

[3] = tested on: human colorectal cancer organoids (CCO32 strain); test: Camptothecin treatment with or without FAK inhibitor, proportion of LGR5-positive p27-positive cells; format: cell-based; settings: co-treatment with camptothecin; FAK inhibitor 10 nM, 24 hours / 10 μm as printed; camptothecin 5 days
Protocol: The scale bar is 100 μm. As a FAK inhibitor, PF573228 (CAS No. 869288-64-2) was used (10 μm). In FIG. 13, “FAKi” indicates a FAK inhibitor. FIG. 14 is a graph showing results of measuring the proportion of the LGR5-positive p27-positive cells when the human colorectal cancer organoids are treated or not treated with camptothecin for 5 days in the presence or absence of a FAK inhibitor. In FIG. 14, “N.S.” indicates no significant difference.

[4] = tested on: human colorectal cancer organoids; test: Colony formation of sorted cells after camptothecin treatment of organoids; format: cell-based; settings: 50 nM; 1,000 sorted cells cultured; day 13 after sorting
Protocol: The human colorectal cancer organoids were treated with camptothecin (CPT) which is a topoisomerase inhibitor (50 nM). Subsequently, the LGR5-positive p27-positive cells, the LGR5-positive p27-negative cells, LGR5-negative p27-positive cells, and LGR5-negative p27-negative cells were sorted and collected with a cell sorter, and 1,000 cells of each type were cultured.
The numerical values in FIG. 4 show the number of colonies (average value±standard error). The scale bar is 1 mm.

YAP signaling = test: Nuclear translocation of YAP in camptothecin-treated organoids (confocal); format: cell-based, human; settings: CCO7 and CCO32 strains, camptothecin treatment
Description: The scale bar is 100 μm. The right side of FIG. 10 is a graph showing results of measuring the proportion of cells containing YAP that has undergone nuclear translocation based on the photographs on the left side of FIG. 10.

[5] = tested on: COL17A1 KO human colorectal cancer organoids; test: Chemotherapy sensitivity of COL17A1 KO organoids; format: cell-based; settings: compared to COL17A1 WT and hetero KO organoids
Description: The chemotherapy sensitivity of COL17A1 KO human colorectal cancer organoids was studied.

COL17A1, pFAK = test: Capillary-based immunoassay for COL17A1, pFAK and total FAK in camptothecin-treated organoids; format: cell-based, human; settings: camptothecin 50 nM; CCO7 and CCO32 strains
[6] = tested on: COL17A1 KO human colorectal cancer organoids xenotransplanted in mice; test: Tumor size after irinotecan in COL17A1 KO xenografts; format: in vivo; settings: COL17A1 KO vs COL17A1 WT xenografts
Protocol: Subsequently, irinotecan was administered to mice xenotransplanted with COL17A1 KO human colorectal cancer organoids, and the tumor size was measured over time. The upper row in FIG. 8 is a schematic view showing a schedule of this experiment. The lower row in FIG. 8 is a graph showing change in tumor size over time. […] In addition, indicates a significant difference at p<0.05.

[7] = tested on: Doxycycline-inducible YAP/TAZ-knockdown human colorectal cancer organoids; test: Experimental Example 12: doxycycline-inducible YAP/TAZ-knockdown organoid xenograft, irinotecan; format: in vivo, NOG mice; settings: irinotecan only
Protocol: The upper row in FIG. 15 is a schematic view showing a schedule of this experiment. Doxycycline-inducible YAP/TAZ-knockdown human colorectal cancer organoids were produced and xenotransplanted into the subcutis of immunodeficient NOG mice. Thereafter, irinotecan was administered. […] The scale bar is 100 μm. In the lower row in FIG. 15, “Control” indicates a result of a group into which neither irinotecan nor doxycycline has been administered, “Dox” indicates a result of a group into which only doxycycline was administered, “Irinotecan” indicates a result of a group into which only irinotecan was administered, and “Irinotecan +Dox” indicates a result of a group into which irinotecan and doxycycline were administered. FIG. 16 is a group showing change in tumor size in mice of each group over time. As a result, in FIG. 16, “Control,” “Dox,” “Irinotecan,” and “Irinotecan +Dox” show the same meaning as in the lower row in FIG. 15. In addition, “*” indicates a significant difference at p<0.05.

[8] = tested on: Doxycycline-inducible YAP/TAZ-knockdown human colorectal cancer organoids; test: Experimental Example 13: YAP/TAZ-knockdown organoid xenograft, doxycycline after irinotecan; format: in vivo, NOG mice; settings: irinotecan once a week for three times, no doxycycline
Protocol: How the inhibition of YAP signaling affects tumor regrowth after chemotherapy was studied. The upper row in FIG. 17 is a schematic view showing a schedule of this experiment. Doxycycline-inducible YAP/TAZ-knockdown human colorectal cancer organoids were produced and xenotransplanted into the subcutis of immunodeficient NOG mice. Thereafter, irinotecan was administered once a week for three times, followed by administering doxycycline over a long period of time to inhibit YAP signaling. Thereafter, administration of doxycycline was discontinued. The lower row in FIG. 17 is a group showing change in tumor size in mice of each group over time. In the lower row in FIG. 17, “Irinotecan” indicates a result of the group into which only irinotecan was administered, and “Irinotecan +Dox” indicates a result of the group into which irinotecan and doxycycline were administered.

[9] = tested on: human colorectal cancer organoids xenotransplanted in mice; test: In vivo imaging of survival of LGR5-positive cells after irinotecan
Protocol: Whether or not the LGR5-positive p27-positive cells resistant to the chemotherapeutic agent contribute to relapse or recurrence of tumors after chemotherapy was studied in vivo. Specifically, irinotecan was administered to mice xenotransplanted with human colorectal cancer organoids, followed by in vivo imaging and genetic lineage-tracing of the LGR5-positive p27-positive cells and the LGR5-positive p27-negative cells over time.
FIG. 5 is a graph showing results obtained by measuring the survival rate of LGR5-positive p27-positive cells and LGR5-positive p27-negative cells after administration of irinotecan.

[10] = irinotecan only, no TEAD inhibitor

C=CC(=O)N1CCC(C)(Nc2cccc(C(F)(F)F)c2)C1 (stereo not shown) [MYF-01-37]
p27-positive cells in COL17A1 KO organoids [1]: led to reappearance of p27-positive cells | tumor size ([2]; TEAD inhibitor after irinotecan (once a week for three times)): tumor size was reduced to a minimum | tumor inhibition effect ([2]; TEAD inhibitor alone): did not show any tumor inhibition effect

CS(=O)(=O)c1cccc(CNc2nc(Nc3ccc4c(c3)CCC(=O)N4)ncc2C(F)(F)F)c1 [PF573228]
cell cycle reentry of LGR5-positive p27-positive cells after camptothecin exposure [3]: inhibited cell cycle reentry

CC[C@@]1(O)C(=O)OCc2c1cc1n(c2=O)Cc2cc3ccccc3nc2-1 [camptothecin]
colony formation of LGR5-positive p27-negative cells after camptothecin treatment [4]: showed no colony formation | colony formation of LGR5-positive p27-positive cells after camptothecin treatment [4]: showed colony formation | YAP signaling (nuclear translocation of YAP) in LGR5-positive p27-positive cells (YAP signaling): activates YAP signaling | sensitivity of COL17A1 KO organoids to camptothecin [5]: more sensitive | expression of COL17A1 (COL17A1, pFAK): expression of COL17A1 was deleted | phosphorylation of FAK (COL17A1, pFAK): phosphorylation of FAK occurred

CCc1c2c(nc3ccc(OC(=O)N4CCC(N5CCCCC5)CC4)cc13)-c1cc3c(c(=O)n1C2)COC(=O)[C@]3(O)CC [irinotecan]
tumor regeneration after administration of irinotecan [6]: more inhibited in COL17A1 KO xenografts than in COL17A1 WT xenografts | therapeutic effect (tumor size over time) [7]: transient | nuclear translocation of YAP in graft ([7]; three days from administration, immunostaining): resulted in nuclear translocation of YAP in vivo | therapeutic effect (tumor size over time) [8]: transient therapeutic effect | time of cancer regrowth [8]: ~40 days | therapeutic effect (tumor size over time) [2, 10]: transient therapeutic effect | time of cancer regrowth [2, 10]: ~40 days | survival of LGR5-positive p27-negative cells after administration of irinotecan [9]: disappeared during an observation period | survival of LGR5-positive p27-positive cells after administration of irinotecan [9]: tolerated chemotherapy and remained
